Key:
human BACE = biological target: T1, human BACE (Homo sapiens, UniProt P56817); test: Test 1: Inhibition of Human BACE; assay type: biochemical; settings: test not named; sentence follows 'at least one of the above-indicated tests'; assigned to BACE Test 1
T1 construct: Recombinant BACE (extracellular domain, expressed in baculovirus and purified using standard methods); made in house
Experimental: Test 1: Inhibition of Human BACE
Recombinant BACE (extracellular domain, expressed in baculovirus and purified using standard methods) at 6 nM concentration is incubated with the test compound at various concentrations for 1 hour at room temperature in 100 mM acetate buffer, pH 4.5, containing 0.1% CHAPS. Synthetic peptide substrate Mca-Ser-Glu-Val-Asn-Leu-Asp-Ala-Glu-Phe-Lys(DNP) (SEQ ID NO: 1) is added to a final concentration of 3 μM and the increase in fluorescence is recorded at excitation of 325 nm and emission at 400 nm in a microplate spectro-fluorimeter for 20 minutes in 1-minute intervals. IC50 values are calculated from percentage of inhibition of BACE-activity as a function of the test compound concentration.

T1 sequence (P56817 46-457 limits assumed): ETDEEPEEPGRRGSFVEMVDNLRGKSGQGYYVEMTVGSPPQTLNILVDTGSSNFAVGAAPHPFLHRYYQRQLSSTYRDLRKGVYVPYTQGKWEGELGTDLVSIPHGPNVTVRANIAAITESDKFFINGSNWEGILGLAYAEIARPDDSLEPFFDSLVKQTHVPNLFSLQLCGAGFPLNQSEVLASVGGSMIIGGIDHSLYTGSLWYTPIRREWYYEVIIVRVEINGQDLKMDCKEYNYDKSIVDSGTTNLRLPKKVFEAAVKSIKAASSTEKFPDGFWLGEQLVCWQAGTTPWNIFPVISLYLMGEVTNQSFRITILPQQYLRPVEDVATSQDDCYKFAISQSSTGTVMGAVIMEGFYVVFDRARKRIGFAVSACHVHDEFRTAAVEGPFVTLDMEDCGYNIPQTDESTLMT

| IC50 (human BACE) | melting point | Compound |
| --- | --- | --- |
| 0.25 µM | – | CC(C)c1cccc(CNC[C@@H](O)[C@@H]2Cc3cccc(c3)CCCCCCC(=O)N(C)[C@@H](C)C(=O)N2)c1 [Example 4, (3S,6S)-3-[(R)-1-Hydroxy-2-(3-isopropyl-benzylamino)-ethyl]-6,7-dimethyl-4,7-diaza-bicyclo[13.3.1]nonadeca-1(18),15(19),16-triene-5,8-dione] |
| – | 132 to 135 °C | CC(C)c1cccc(CNC[C@@H](O)[C@@H]2Cc3cccc(c3)OCCCCCC(=O)N(C)[C@@H](C)C(=O)N2)c1 [Example 1, (10S,13S)-13-[(R)-1-Hydroxy-2-(3-isopropyl-benzylamino)-ethyl]-9,10-dimethyl-2-oxa-9,12-diaza-bicyclo[13.3.1]nonadeca-1(19),15,17-triene-8,11-dione] |
| – | 148 to 150 °C | CC(C)c1cccc(CNC[C@@H](O)[C@@H]2Cc3cccc(c3)OCCCCS(=O)(=O)C[C@@H](C)C(=O)N2)c1 [Example 6, (9S,12S)-12-[(R)-1-Hydroxy-2-(3-isopropyl-benzylamino)-ethyl]-9-methyl-7,7-dioxo-2-oxa-7lambda*6*-thia-11-aza-bicyclo[12.3.1]octadeca-1(18),14,16-trien-10-one] |

From patent publication US8008250B2, “Macrocyclic compounds and compositions useful as BACE inhibitors” (Novartis AG, priority 2005, dated 2011)
